{"source": "patent US20250312323A1", "about": "(Cavion, Inc., priority 2018, published 2025)", "key": {"[1]": {"system": "patients with essential tremor", "assay": "T-CALM: TETRAS total score", "assay_type": "in vivo, human", "experimental": "The Total TETRAS score was defined as the sum of the TETRAS performance subscale total score and the TETRAS ADL subscale score. TETRAS TOTAL score combines both patient reported outcome and objective measurement of tremor amplitude in a single score. Analyses of the TETRAS-ADL was conducted using the same type of ANCOVA model as described for the TETRAS-PS, using two-sided tests at the alpha=0.05 level of significance (FIG. 3 and Table 3).\n(§1) Both sets of scores were statistically analyzed."}, "[2]": {"system": "patients with essential tremor", "assay": "T-CALM: Patient Global Impression of Change (PGIC)", "assay_type": "in vivo, human", "conditions": "for PGIC score (rescaled −3 to 3), LS mean (SE): ANCOVA", "source_text": "Treatment success as measured by PGIC was summarized using descriptive statistics.\nThe Patient Global Impression of Change (PGIC) will quantify a patient's impression of improvement or decline over time with respect to ET treatment (see, e.g., Guy, Assessment Mantal for Psychopharmacology. Rockville, MD: Department of Health, Education, and Welfare Public Health Service Alcohol, Drug Abuse, and Mental Health Administration, 1976). The patient will use the PGIC scale to assess current health status versus initiation of treatment and calculate the difference."}, "[3]": {"system": "patients with essential tremor", "assay": "T-CALM: Kinesia ONE accelerometry score", "assay_type": "in vivo, human", "excerpt": "Kinesia One platform is deployed in T-CALM as a digital marker of tremor severity. Kinesia One is FDA cleared for monitoring Parkinson's motor symptom severity with only limited data on assessment of tremor in ET patients. The algorithmically derived score was developed primarily in Parkinson's disease algorithms and has limited validation in ET (see, e.g., Hoffman et al., 2011 Conf Proc IEEE Eng Med Biol Soc. 2011:4378-81). The Kinesia One device is placed on the index finger of each ET patient and worn in the clinic after completion of the TETRAS Performance subscale. Four tasks are performed by the patient on the left and right sides to assess resting, postural, kinetic and lateral wing beating tremor. The Kinesia One score change in score from baseline to day 28 is evaluated as a secondary efficacy endpoint. The Kinesia One data is also utilized for exploratory analysis of efficacy on the change from baseline to day 15 for accelerometry score and for change from baseline on amplitude measures for days 15 and 28. Consistent finger sensor placement and consistent task execution are critical factors for valid Kinesia One scores.\nas §1"}, "[4]": {"system": "patients with essential tremor", "assay": "T-CALM: PK/PD, Cmin exposure vs change in TETRAS-PS (Hill equation)", "assay_type": "in vivo, human", "conditions": "steady state, estimated", "excerpt": "Evaluation of the relationship between the Cmin exposure level of CX-8998 and response (E) as measured by change from baseline in TETRAS-PS using the Hill Equation: […]\nPharmacodynamic variables (Response) evaluated included change from baseline in TETRAS performance subscale, TETRAS activities of daily living, TETRAS total score."}, "EEG alpha power": {"system": "EEG alpha power", "assay": "Human pharmaco-EEG alpha power (Study PN001/Part II)", "assay_type": "in vivo", "conditions": "at plasma concentrations greater than 200 to 300 nM (4 mg BID)", "excerpt": "FIG. 91 contains a graph showing the analysis of awake EEG absolute power for Alpha band (Electrode site Oz, eyes closed condition) (Study PN001/Part II).\nFIG. 92 contains a graph showing the pharmacokinetic/pharmacodynamic analysis of EEG Alpha power (Study PN001/Part 1). BID=twice daily; EEG=electroencephalogram; MK=CX-8998; PBO=placebo; PD=pharmacodynamic."}, "[5]": {"conditions": "Day 15, change from baseline, N = 39"}, "[6]": {"conditions": "Day 28, change from baseline, N = 37"}}, "data": [{"smiles": "CC(C)c1ccc(CC(=O)N[C@H](C)c2ccc(OCC(F)(F)F)cn2)cc1", "note": "[CX-8998]", "values": [{"measurement": "Subjects with improvement of at least 5 points by TETRAS Total score, number", "setting": "[1]; Day 15, N 39", "value": 22}, {"measurement": "TETRAS Total Score, subjects with 0 change, n (%)", "setting": "[1]; [5]", "value": "1 (2.6%)"}, {"measurement": "TETRAS Total Score, subjects with >0 to 1 point improvement, n (%)", "setting": "[1]; [5]", "value": "2 (5.1%)"}, {"measurement": "TETRAS Total Score, subjects with >0 to 1 point worsening, n (%)", "setting": "[1]; [5]", "value": "2 (5.1%)"}, {"measurement": "TETRAS Total Score, subjects with >1 to 2.5 point improvement, n (%)", "setting": "[1]; [5]", "value": "2 (5.1%)"}, {"measurement": "TETRAS Total Score, subjects with >1 to 2.5 point worsening, n (%)", "setting": "[1]; [5]", "value": "1 (2.6%)"}, {"measurement": "TETRAS Total Score, subjects with >2.5 to 5 point improvement, n (%)", "setting": "[1]; [5]", "value": "7 (17.9%)"}, {"measurement": "TETRAS Total Score, subjects with >2.5 to 5 point worsening, n (%)", "setting": "[1]; [5]", "value": "4 (10.3%)"}, {"measurement": "TETRAS Total Score, subjects with >5 to 10 point improvement, n (%)", "setting": "[1]; [5]", "value": "6 (15.4%)"}, {"measurement": "TETRAS Total Score, subjects with >5 to 10 point worsening, n (%)", "setting": "[1]; [5]", "value": 0}, {"measurement": "TETRAS Total Score, subjects with >10 point worsening, n (%)", "setting": "[1]; [5]", "value": 0}, {"measurement": "TETRAS Total Score, subjects with >10 to 20 point improvement, n (%)", "setting": "[1]; [5]", "value": "12 (30.8%)"}, {"measurement": "TETRAS Total Score, subjects with >20 point improvement, n (%)", "setting": "[1]; [5]", "value": "2 (5.1%)"}, {"measurement": "total TETRAS score with TETRAS-PS rated by independent video raters, vs placebo", "setting": "[1]; Day 15 or 28", "value": "not statistically significant"}, {"measurement": "Subjects with improvement of at least 5 points by TETRAS Total score, number", "setting": "[1]; Day 28, N 37", "value": 21}, {"measurement": "TETRAS Total Score, subjects with 0 change, n (%)", "setting": "[1]; [6]", "value": 0}, {"measurement": "TETRAS Total Score, subjects with >0 to 1 point improvement, n (%)", "setting": "[1]; [6]", "value": "2 (5.4%)"}, {"measurement": "TETRAS Total Score, subjects with >0 to 1 point worsening, n (%)", "setting": "[1]; [6]", "value": "4 (10.8%)"}, {"measurement": "TETRAS Total Score, subjects with >1 to 2.5 point improvement, n (%)", "setting": "[1]; [6]", "value": "2 (5.4%)"}, {"measurement": "TETRAS Total Score, subjects with >1 to 2.5 point worsening, n (%)", "setting": "[1]; [6]", "value": "2 (5.4%)"}, {"measurement": "TETRAS Total Score, subjects with >2.5 to 5 point improvement, n (%)", "setting": "[1]; [6]", "value": "5 (13.5%)"}, {"measurement": "TETRAS Total Score, subjects with >2.5 to 5 point worsening, n (%)", "setting": "[1]; [6]", "value": "1 (2.7%)"}, {"measurement": "TETRAS Total Score, subjects with >5 to 10 point improvement, n (%)", "setting": "[1]; [6]", "value": "7 (18.9%)"}, {"measurement": "TETRAS Total Score, subjects with >5 to 10 point worsening, n (%)", "setting": "[1]; [6]", "value": 0}, {"measurement": "TETRAS Total Score, subjects with >10 point worsening, n (%)", "setting": "[1]; [6]", "value": 0}, {"measurement": "TETRAS Total Score, subjects with >10 to 20 point improvement, n (%)", "setting": "[1]; [6]", "value": "8 (21.6%)"}, {"measurement": "TETRAS Total Score, subjects with >20 point improvement, n (%)", "setting": "[1]; [6]", "value": "5 (13.5%)"}, {"measurement": "PGIC Category 0 No change, patients, number (%)", "setting": "[2]; Day 15", "value": "11 (28%)"}, {"measurement": "PGIC Category 1 Minimally improved, patients, number (%)", "setting": "[2]; Day 15", "value": "17 (44%)"}, {"measurement": "PGIC Category 2 Much improved, patients, number (%)", "setting": "[2]; Day 15", "value": "8 (21%)"}, {"measurement": "PGIC Category 3 Very much improved, patients, number (%)", "setting": "[2]; Day 15", "value": "1 (3%)"}, {"measurement": "PGIC Category −1 Minimally worse, patients, number (%)", "setting": "[2]; Day 15", "value": "1 (3%)"}, {"measurement": "PGIC Category −2 Much worse, patients, number (%)", "setting": "[2]; Day 15", "value": "1 (3%)"}, {"measurement": "PGIC Category −3 Very much worse, patients, number (%)", "setting": "[2]; Day 15", "value": 0}, {"measurement": "mean PGIC score vs placebo", "setting": "[2]; Day 15", "value": "significantly greater (improved)"}, {"measurement": "PGIC Score, subjects 0 - no change, n (%)", "setting": "[2]; Day 15, N = 39", "value": "11 (28%)"}, {"measurement": "PGIC Score, subjects 1 - minimally improved, n (%)", "setting": "[2]; Day 15, N = 39", "value": "17 (44%)"}, {"measurement": "PGIC Score, subjects 2 - much improved, n (%)", "setting": "[2]; Day 15, N = 39", "value": "8 (21%)"}, {"measurement": "PGIC Score, subjects 3 - very much improved, n (%)", "setting": "[2]; Day 15, N = 39", "value": "1 (3%)"}, {"measurement": "PGIC Score, subjects −1 - minimally worse, n (%)", "setting": "[2]; Day 15, N = 39", "value": "1 (3%)"}, {"measurement": "PGIC Score, subjects −2 - much worse, n (%)", "setting": "[2]; Day 15, N = 39", "value": "1 (3%)"}, {"measurement": "PGIC Score, subjects −3 - very much worse, n (%)", "setting": "[2]; Day 15, N = 39", "value": 0}, {"measurement": "PGIC score (rescaled −3 to 3), LS mean (SE)", "setting": "[2]; Day 15", "value": "0.9 (0.17)"}, {"measurement": "PGIC Category 0 No change, patients, number (%)", "setting": "[2]; Day 28", "value": "14 (36%)"}, {"measurement": "PGIC Category 1 Minimally improved, patients, number (%)", "setting": "[2]; Day 28", "value": "10 (26%)"}, {"measurement": "PGIC Category 2 Much improved, patients, number (%)", "setting": "[2]; Day 28", "value": "7 (18%)"}, {"measurement": "PGIC Category 3 Very much improved, patients, number (%)", "setting": "[2]; Day 28", "value": "3 (8%)"}, {"measurement": "PGIC Category −1 Minimally worse, patients, number (%)", "setting": "[2]; Day 28", "value": "1 (3%)"}, {"measurement": "PGIC Category −2 Much worse, patients, number (%)", "setting": "[2]; Day 28", "value": "1 (3%)"}, {"measurement": "PGIC Category −3 Very much worse, patients, number (%)", "setting": "[2]; Day 28", "value": "1 (3%)"}, {"measurement": "mean PGIC score vs placebo", "setting": "[2]; Day 28", "value": "trended toward significant improvement"}, {"measurement": "PGIC Score, subjects 0 - no change, n (%)", "setting": "[2]; Day 28, head N = 39", "value": "14 (36%)"}, {"measurement": "PGIC Score, subjects 1 - minimally improved, n (%)", "setting": "[2]; Day 28, head N = 39", "value": "10 (26%)"}, {"measurement": "PGIC Score, subjects 2 - much improved, n (%)", "setting": "[2]; Day 28, head N = 39", "value": "7 (18%)"}, {"measurement": "PGIC Score, subjects 3 - very much improved, n (%)", "setting": "[2]; Day 28, head N = 39", "value": "3 (8%)"}, {"measurement": "PGIC Score, subjects −1 - minimally worse, n (%)", "setting": "[2]; Day 28, head N = 39", "value": "1 (3%)"}, {"measurement": "PGIC Score, subjects −2 - much worse, n (%)", "setting": "[2]; Day 28, head N = 39", "value": "1 (3%)"}, {"measurement": "PGIC Score, subjects −3 - very much worse, n (%)", "setting": "[2]; Day 28, head N = 39", "value": "1 (3%)"}, {"measurement": "PGIC score (rescaled −3 to 3), LS mean (SE)", "setting": "[2]; Day 28", "value": "0.8 (0.19)"}, {"measurement": "Kinesia ONE Total Score change from baseline, LS mean difference from placebo (95% CI)", "setting": "[3]; Day 15, ANCOVA", "value": "−0.4 (−1.7, 0.9)"}, {"measurement": "Kinesia ONE score, difference vs placebo", "setting": "[3]; Day 15 and Day 28", "value": "did not show a significant difference"}, {"measurement": "Emax, change from baseline in TETRAS-PS vs Cmin (Hill equation)", "setting": "[4]", "value": "approximately −4.1"}, {"measurement": "reduction of EEG alpha power", "setting": "EEG alpha power", "value": "≥ 25", "unit": "%"}]}]}
